Measurements as given in patent publication US9676714B2, “Sulfonylindole derivatives and method for preparing the same” (Daewoong Pharmaceutical Co., Ltd., priority 2013, dated 2017).
Structures can show the parent of a compound that is named as a salt.

Each molecule was assayed against T1, proton pump (H+/K+-ATPase) (Sus scrofa, UniProt P19156) (assay: Measurement of inhibitory effects on proton pump (H+/K+-ATPase) activities). Conditions: hog gastric vesicles, K+-specific H+/K+-ATPase activity, Tris-HCl buffer pH 7.4, 37° C. for 40 minutes, malachite green Pi readout.
T1 construct: Gastric vesicles were prepared from hog stomach via centrifugal separation; from tissue; host or cells: hog stomach (gastric vesicles, method of Rabon et al. 1988)
T1 sequence (P19156 whole entry): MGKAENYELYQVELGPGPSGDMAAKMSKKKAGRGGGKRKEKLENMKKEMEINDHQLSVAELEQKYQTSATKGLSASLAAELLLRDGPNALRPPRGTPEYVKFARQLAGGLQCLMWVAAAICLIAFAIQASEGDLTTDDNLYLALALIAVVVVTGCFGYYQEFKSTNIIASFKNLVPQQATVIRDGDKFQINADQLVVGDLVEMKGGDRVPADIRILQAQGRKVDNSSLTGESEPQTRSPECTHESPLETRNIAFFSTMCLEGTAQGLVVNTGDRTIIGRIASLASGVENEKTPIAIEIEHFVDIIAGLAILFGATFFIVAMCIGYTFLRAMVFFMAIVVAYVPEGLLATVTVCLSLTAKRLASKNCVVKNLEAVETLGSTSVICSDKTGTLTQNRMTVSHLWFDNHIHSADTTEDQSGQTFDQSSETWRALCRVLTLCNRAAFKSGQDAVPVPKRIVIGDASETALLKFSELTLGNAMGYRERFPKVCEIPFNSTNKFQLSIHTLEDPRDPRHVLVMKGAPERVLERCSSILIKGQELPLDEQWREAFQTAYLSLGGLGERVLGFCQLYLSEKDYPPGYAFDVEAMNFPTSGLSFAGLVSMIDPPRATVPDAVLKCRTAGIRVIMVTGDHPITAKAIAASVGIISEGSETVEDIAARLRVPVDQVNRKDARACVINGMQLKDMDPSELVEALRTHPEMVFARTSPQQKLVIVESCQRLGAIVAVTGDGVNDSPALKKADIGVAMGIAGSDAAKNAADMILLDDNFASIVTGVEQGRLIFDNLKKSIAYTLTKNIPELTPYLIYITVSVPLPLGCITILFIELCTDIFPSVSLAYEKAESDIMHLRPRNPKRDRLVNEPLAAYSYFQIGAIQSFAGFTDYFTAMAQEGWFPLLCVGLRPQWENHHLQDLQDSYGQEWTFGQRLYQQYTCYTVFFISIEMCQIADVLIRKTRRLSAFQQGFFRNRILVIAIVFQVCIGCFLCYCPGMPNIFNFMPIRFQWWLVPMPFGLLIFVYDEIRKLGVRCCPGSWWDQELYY
T1 sequence (P18434 whole entry partner): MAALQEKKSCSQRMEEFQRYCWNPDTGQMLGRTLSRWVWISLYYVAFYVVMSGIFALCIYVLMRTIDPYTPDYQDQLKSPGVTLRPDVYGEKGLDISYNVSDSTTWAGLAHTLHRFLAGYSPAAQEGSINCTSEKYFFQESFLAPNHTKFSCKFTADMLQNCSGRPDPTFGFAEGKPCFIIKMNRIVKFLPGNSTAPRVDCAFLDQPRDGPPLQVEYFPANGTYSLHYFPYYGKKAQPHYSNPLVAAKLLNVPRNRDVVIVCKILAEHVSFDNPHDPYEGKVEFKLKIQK
Assay type: biochemical
Procedure: 1) Preparation of Gastric Vesicles
Gastric vesicles were prepared from hog stomach via centrifugal separation (Edd C. Rabon et al., Preparation of Gastric H^+,K^+-ATPase, Methods in enzymology, vol. 157 Academic Press Inc., (1988), pp. 649-654). The protein contents of the thus prepared gastric vesicles were quantitated by Bicinchoninic Acid (BCA) kit.
2) Measurement of Inhibitory Effects on Proton Pump (H^+/K^+-ATPase) Activities
The inhibitory effects of the compounds of the present invention against proton pump activities were measured using a 96-well plate. In this assay, the K^+-specific H^+/K^+-ATPase activities were calculated based on the difference between the H^+/K^+-ATPase activity in the presence of K^+ and that in the absence of K. In the 96-well plate, 0.5% dimethyl sulfoxide (DMSO) in buffer was added to the negative and positive control groups, and the diluted compounds of the present invention were added to the test groups. All assays were performed in a reaction volume of 100 μl at room temperature. The reaction buffer solution (60 mmol/l Tris-HCl buffer, pH 7.4) including the hog gastric vesicles was added with DMSO and the compounds at various concentrations, and then further added with 10 μl of 10 mmol/1 adenosine triphosphate Tris buffer solution (60 mmol/l Tris-HCl buffer, pH 7.4) to initiate an enzyme reaction. […] The amount of monophosphate (Pi) in the reaction was measured at 570 nm using a micro plate reader (FLUOstar Omega, BMG LABTECH). The inhibition rates (%) were determined from the activity values of control groups and those of test compounds at various concentrations, and the […] of the test compounds were calculated based on the respective inhibition value (%) using the Logistic 4-parameter function of Sigmaplot 8.0 program.
In the case of `CNCc1cn(S(=O)(=O)c2cccnc2)c2cc(Nc3ccccc3)ccc12` [Example 2, 3-((methylamino)methyl)-N-phenyl-1-(pyridin-3-ylsulfonyl)-1H-indol-6-amine hydrochloride], the IC50 is reported as 1150 nM.
`CNCc1cn(S(=O)(=O)c2cccnc2)c2cc(Nc3ccccc3F)ccc12` [Example 3, N-(2-fluorophenyl)-3-((methylamino)methyl)-1-(pyridin-3-ylsulfonyl)-1H-indol-6-amine hydrochloride] gave an IC50 of 250 nM.
With `CNCc1cn(S(=O)(=O)c2cccnc2)c2cc(Nc3ccccc3Cl)ccc12` [Example 4, N-(2-chlorophenyl)-3-((methylamino)methyl)-1-(pyridin-3-ylsulfonyl)-1H-indol-6-amine hydrochloride] the IC50 was 60 nM.
Work on `CNCc1cn(S(=O)(=O)c2cccnc2)c2cc(Nc3cccc(Br)c3)ccc12` [Example 5, N-(3-bromophenyl)-3-((methylamino)methyl)-1-(pyridin-3-ylsulfonyl)-1H-indol-6-amine hydrochloride] yielded an IC50 of 800 nM.
Work on `CNCc1cn(S(=O)(=O)c2cccnc2)c2cc(Nc3cccc(F)c3)ccc12` [Example 6, N-(3-fluorophenyl)-3-((methylamino)methyl)-1-(pyridin-3-ylsulfonyl)-1H-indol-6-amine hydrochloride] yielded an IC50 of 1180 nM.
`CNCc1cn(S(=O)(=O)c2cccnc2)c2cc(Nc3cccc(Cl)c3)ccc12` [Example 7, N-(3-chlorophenyl)-3-((methylamino)methyl)-1-(pyridin-3-ylsulfonyl)-1H-indol-6-amine hydrochloride] was tested, and the IC50 was 590 nM.
`CCc1cccc(Nc2ccc3c(CNC)cn(S(=O)(=O)c4cccnc4)c3c2)c1` [Example 8, N-(3-ethylphenyl)-3-((methylamino)methyl)-1-(pyridin-3-ylsulfonyl)-1H-indol-6-amine hydrochloride] gave an IC50 of 170 nM.
With `CNCc1cn(S(=O)(=O)c2cccnc2)c2cc(Nc3ccc(F)cc3)ccc12` [Example 9, N-(4-fluorophenyl)-3-((methylamino)methyl)-1-(pyridin-3-ylsulfonyl)-1H-indol-6-amine hydrochloride] the IC50 was 1050 nM.
Molecule `CNCc1cn(S(=O)(=O)c2cccnc2)c2cc(Nc3ccc(C)cc3)ccc12` [Example 10, 3-((methylamino)methyl)-1-(pyridin-3-ylsulfonyl)-N-(p-tolyl)-1H-indol-6-amine hydrochloride] has an IC50 of 200 nM.
In the case of `CNCc1cn(S(=O)(=O)c2cccnc2)c2cc(Nc3ccc(Cl)cc3)ccc12` [Example 11, N-(4-chlorophenyl)-3-((methylamino)methyl)-1-(pyridin-3-ylsulfonyl)-1H-indol-6-amine hydrochloride], the IC50 is reported as 1020 nM.
`CNCc1cn(S(=O)(=O)c2cccnc2)c2cc(Nc3ccc(OC)cc3)ccc12` [Example 12, N-(4-methoxyphenyl)-3-((methylamino)methyl)-1-(pyridin-3-ylsulfonyl)-1H-indol-6-amine hydrochloride] showed an IC50 of 420 nM.
`CNCc1cn(S(=O)(=O)c2cccnc2)c2cc(Nc3ccc(C(F)(F)F)cc3)ccc12` [Example 13, 3-((methylamino)methyl)-1-(pyridin-3-ylsulfonyl)-N-(4-(trifluoromethyl)phenyl)-1H-indol-6-amine hydrochloride] showed an IC50 of 1080 nM.
Molecule `CNCc1cn(S(=O)(=O)c2cccnc2)c2cc(Nc3ccc(C(C)(C)C)cc3)ccc12` [Example 14, N-(4-(tert-butyl)phenyl)-3-((methylamino)methyl)-1-(pyridin-3-ylsulfonyl)-1H-indol-6-amine hydrochloride] has an IC50 of 1500 nM.
In the case of `CNCc1cn(S(=O)(=O)c2cccnc2)c2cc(Nc3ccc(-c4cccc(OC)c4)cc3)ccc12` [Example 15, N-(3′-methoxy-[1,1′-biphenyl]-4-yl)-3-((methylamino)methyl)-1-(pyridin-3-ylsulfonyl)-1H-indol-6-amine hydrochloride], the IC50 is reported as 1850 nM.
Molecule `CNCc1cn(S(=O)(=O)c2cccnc2)c2cc(Nc3cc(-c4ccccc4)ccc3C)ccc12` [Example 16, N-(4-methyl-[1,1′-biphenyl]-3-yl)-3-((methylamino)methyl)-1-(pyridin-3-ylsulfonyl)-1H-indol-6-amine hydrochloride] has an IC50 of 780 nM.
`CNCc1cn(S(=O)(=O)c2cccnc2)c2cc(Nc3ccc(Oc4ccccc4)cc3)ccc12` [Example 17, 3-((methylamino)methyl)-N-(4-phenoxyphenyl)-1-(pyridin-3-ylsulfonyl)-1H-indol-6-amine hydrochloride] was tested, and the IC50 was 2250 nM.
In the case of `CNCc1cn(S(=O)(=O)c2cccnc2)c2cc(Nc3ccc(Oc4ccc(F)cc4)cc3)ccc12` [Example 18, N-(4-(4-fluorophenoxy)phenyl)-3-((methylamino)methyl)-1-(pyridin-3-ylsulfonyl)-1H-indol-6-amine hydrochloride], the IC50 is reported as 1300 nM.
In the case of `CNCc1cn(S(=O)(=O)c2cccnc2)c2cc(Nc3ccc(Oc4ccc(Cl)cc4)cc3)ccc12` [Example 19, N-(4-(4-chlorophenoxy)phenyl)-3-((methylamino)methyl)-1-(pyridin-3-ylsulfonyl)-1H-indol-6-amine hydrochloride], the IC50 is reported as 1910 nM.
For `CNCc1cn(S(=O)(=O)c2cccnc2)c2cc(Nc3cccc(C)c3F)ccc12` [Example 20, N-(2-fluoro-3-methylphenyl)-3-((methylamino)methyl)-1-(pyridin-3-ylsulfonyl)-1H-indol-6-amine hydrochloride], the IC50 was 380 nM.
In the case of `CNCc1cn(S(=O)(=O)c2cccnc2)c2cc(Nc3ccc(C)cc3C)ccc12` [Example 21, N-(2,4-dimethylphenyl)-3-((methylamino)methyl)-1-(pyridin-3-ylsulfonyl)-1H-indol-6-amine hydrochloride], the IC50 is reported as 210 nM.
In the case of `CNCc1cn(S(=O)(=O)c2cccnc2)c2cc(Nc3ccc(F)cc3C)ccc12` [Example 23, N-(4-fluoro-2-methylphenyl)-3-((methylamino)methyl)-1-(pyridin-3-ylsulfonyl)-1H-indol-6-amine hydrochloride], the IC50 is reported as 220 nM.
Work on `CNCc1cn(S(=O)(=O)c2cccnc2)c2cc(Nc3ccc(F)cc3F)ccc12` [Example 24, N-(2,4-difluorophenyl)-3-((methylamino)methyl)-1-(pyridin-3-ylsulfonyl)-1H-indol-6-amine hydrochloride] yielded an IC50 of 560 nM.
`CNCc1cn(S(=O)(=O)c2cccnc2)c2cc(Nc3ccc(F)cc3Cl)ccc12` [Example 25, N-(2-chloro-4-fluorophenyl)-3-((methylamino)methyl)-1-(pyridin-3-ylsulfonyl)-1H-indol-6-amine hydrochloride] gave an IC50 of 160 nM.
Work on `CNCc1cn(S(=O)(=O)c2cccnc2)c2cc(Nc3ccc(F)cc3C(F)(F)F)ccc12` [Example 26, N-(4-fluoro-2-(trifluoromethyl)phenyl)-3-((methylamino)methyl)-1-(pyridin-3-ylsulfonyl)-1H-indol-6-amine hydrochloride] yielded an IC50 of 180 nM.
`CNCc1cn(S(=O)(=O)c2cccnc2)c2cc(Nc3ccc(Cl)cc3C)ccc12` [Example 27, N-(4-chloro-2-methylphenyl)-3-((methylamino)methyl)-1-(pyridin-3-ylsulfonyl)-1H-indol-6-amine hydrochloride] gave an IC50 of 420 nM.
`CNCc1cn(S(=O)(=O)c2cccnc2)c2cc(Nc3ccc(Cl)cc3C#N)ccc12` [Example 30, 5-chloro-2-((3-((methylamino)methyl)-1-(pyridin-3-ylsulfonyl)-1H-indol-6-yl)amino)benzonitrile hydrochloride] was tested, and the IC50 was 1140 nM.
